Results from ChEMBL document CHEMBL5042549, “Discovery of Inhibitors of the Lipopolysaccharide Transporter MsbA: From a Screening Hit to Potent Wild-Type Gram-Negative Activity” (J Med Chem, 2022).
≈ marks a conversion by molar mass, not a printed value.

Experiments:
[1] = Inhibition of Escherichia coli MsbA preincubated for 10 mins followed by ATP addition and incubated for 1 hr by fluorescence polarization assay
[2] = Lipophilicity, logD of compound by shake flask method; format: physicochemical; settings: octanol/water
[3] = test system: Escherichia coli; experiment: Antibacterial activity against wild type Escherichia coli CFT073 (ATCC 700928) assessed as bacterial growth by broth microdilution assay; format: functional
[4] = test system: Escherichia coli; experiment: Antibacterial activity against wild type Escherichia coli MG1655 carrying lptD (imp4213) assessed as bacterial growth inhibition by broth microdilution assay; format: functional

SMILES	IC50 [1] [nM]	logD [2]	MIC [3] [µM]	MIC [4] [µM]
C[C@H](Oc1ccc2ncc(CCC(=O)O)c(C3CC3)c2c1)c1c(Cl)ccc(F)c1Cl	7	4.1	> 100	
C[C@H](Oc1ccc2ncc(/C=C/C(=O)NC(CC(=O)O)CC(=O)O)c(C3CC3)c2c1)c1c(Cl)ccc(F)c1Cl	9	0.4	> 100	
C[C@H](Oc1cccc(C2CC2)n1)c1c(Cl)ccc(F)c1Cl	> 10000	4.9	> 100	> 100
C[C@H](Oc1ccc2ncc(/C=C/C(=O)O)cc2c1)c1c(Cl)ccc(F)c1Cl	140	2.5	> 100	
C[C@H](Oc1ccc(NC(=O)CC(N)=O)c(C2CC2)c1)c1c(Cl)ccc(F)c1Cl	40	3.9	> 100	25 (≈ 10.6 µg/mL)
C[C@H](Oc1ccnc(C2CC2)n1)c1c(Cl)ccc(F)c1Cl	450	4.2	> 100	> 100
C[C@H](Oc1ccc2ncc(/C=C/c3nn[nH]n3)c(C3CC3)c2c1)c1c(Cl)ccc(F)c1Cl	3	3.7	12	
Cc1c(/C=C/C(=O)O)cnc2ccc(O[C@@H](C)c3c(Cl)ccc(F)c3Cl)cc12	20	3	> 100	
C[C@H](Oc1ccc(/C=C/C(=O)O)c(CC2CC2)c1)c1c(Cl)ccc(F)c1Cl	460	3.9	> 100	50 (≈ 20.5 µg/mL)
C[C@H](Oc1ccc2c(=O)nc(/C=C/C(=O)O)n(C3CC3)c2c1)c1c(Cl)ccc(F)c1Cl	7200		> 100	
Cc1c(/C=C/C(=O)O)ccc2ccc(O[C@@H](C)c3c(Cl)ccc(F)c3Cl)cc12	32	4.5	> 100	
C[C@H](Oc1ccc2ncc(/C=C/C(=O)NS(C)(=O)=O)c(C3CC3)c2c1)c1c(Cl)cccc1Cl	2	2.9	35	
Cc1cc(O[C@@H](C)c2c(Cl)ccc(F)c2Cl)ccc1/C=C/C(=O)O	2200	3.2	> 100	> 100
C[C@H](Oc1ccc2nnc(/C=C/C(=O)O)c(C3CC3)c2c1)c1c(Cl)ccc(F)c1Cl	20	3.2	> 100	
C[C@H](Oc1ccc2ncc(/C=C/C(=O)O)c(-n3ccnc3)c2c1)c1c(Cl)ccc(F)c1Cl	2200	2	> 100	
CC(Oc1ccc2ncc(/C=C/C(=O)O)cc2c1)C1CCCCC1 (configuration not stated)	39000	3		
C[C@H](Oc1ccc2ncc(/C=C/C(=O)O)c(C3CC3)c2c1)c1c(Cl)ccc(F)c1Cl	4	4.1	79	
C[C@H](Oc1cccc(C2CC2)c1)c1c(Cl)ccc(F)c1Cl	> 10000	5	> 100	> 100
C[C@H](Oc1cnc2cnc(/C=C/C(=O)O)c(C3CC3)c2c1)c1c(Cl)cccc1Cl	12		> 100	
C[C@H](Oc1ccc2ncc(/C=C/C(=O)O)c(CF)c2c1)c1c(Cl)ccc(F)c1Cl	25		> 100	
O=C(O)/C=C/c1cnc2ccc(O[C@@H](CO)c3c(Cl)cccc3Cl)cc2c1C1CC1	550	2	> 100	
C[C@H](Oc1ccc(NC(=O)CC(N)=O)c(C2CC2)n1)c1c(Cl)ccc(F)c1Cl	27	3.7	> 100	12 (≈ 5.12 µg/mL)
C[C@H](Oc1ccnc(C2CC2)c1)c1c(Cl)ccc(F)c1Cl	3400	4.3	> 100	> 100
C[C@H](Oc1cc(CC#N)c2ncc(/C=C/C(=O)O)c(C3CC3)c2c1)c1c(Cl)ccc(F)c1Cl	20	2.8	79	
C[C@H](Oc1ccc(NC(=O)CC(=O)O)c(C2CC2)c1)c1c(Cl)ccc(F)c1Cl	60	1.9	> 100	71 (≈ 30.3 µg/mL)

SMILES	IC50 [1] [nM]	logD [2]	MIC [3] [µM]	MIC [4] [µM]
C[C@H](Oc1ccc(/C=C/C(=O)O)cc1)c1c(Cl)ccc(F)c1Cl	5800	2.8	> 100	> 100
C[C@H](Oc1ccc2ncc(-c3ccn(CCC(=O)O)n3)c(C3CC3)c2c1)c1c(Cl)cccc1Cl	6	2.7	> 100	
C[C@H](Oc1ccc2nc(OCCN)c(CCC(=O)O)c(C3CC3)c2c1)c1c(Cl)ccc(F)c1Cl	32	3.8	> 100	
CC(Oc1ccc2ncc(/C=C/C(=O)O)c(C3CC3)c2c1)c1c(Cl)cccc1C#N (configuration not stated)	24	2.2	> 100	
C[C@H](Oc1ccc2ncc(/C=C/C(=O)O)c(O)c2c1)c1c(Cl)ccc(F)c1Cl	5000	1.9	> 100	
C[C@H](Oc1ccc2ncc(/C=C/C(=O)O)c(C3CC3)c2c1)c1c(Cl)cccc1Cl	2	3.7	30	
C[C@H](Oc1ccc2ncc(/C=C/S(=O)(=O)O)c(C3CC3)c2c1)c1c(Cl)ccc(F)c1Cl	14	2.5	> 100	
C[C@H](Oc1ccc(/C=C/C(=O)O)c(C2CC2)c1)c1c(Cl)ccc(F)c1Cl	100	3.6	> 100	100 (≈ 39.5 µg/mL)
C[C@H](Oc1ccc2c(c1)CN(CCC(=O)O)CC2)c1c(Cl)ccc(F)c1Cl	> 50000		> 100	
C[C@H](Oc1ccc2ncc(/C=C/C(=O)O)c(N(C)C)c2c1)c1c(Cl)ccc(F)c1Cl	290	3.6	> 100	
C[C@H](Oc1nccc(N(c2nc(C(=O)O)cs2)C2CC2)n1)c1c(Cl)ccc(F)c1Cl	46	2.6	> 100	
CC(C)Oc1ccc2ncc(/C=C/C(=O)O)c(C3CC3)c2c1	> 10000		> 100	
C[C@H](Oc1ccc2ncc(/C=C/C(=O)O)c(C3CC3)c2c1)c1c(Cl)ccnc1Cl	18	2.3	> 100	
C[C@H](Oc1cc(CO)c2ncc(/C=C/C(=O)O)c(C3CC3)c2c1)c1c(Cl)ccc(F)c1Cl	10	2.9	> 100	
C[C@H](Oc1ccc2ncc(/C=C/C(=O)N3CC[C@@H](N)[C@H](C(=O)O)C3)c(C3CC3)c2c1)c1c(Cl)ccc(F)c1Cl (mixture of isomers)	5	3.1	> 100	
C[C@H](Oc1ccc2ncc(/C=C/C(=O)O)c(C#N)c2c1)c1c(Cl)ccc(F)c1Cl	110	2.3	> 100	
C[C@H](Oc1ccc2ncc(/C=C/C(N)=O)c(C3CC3)c2c1)c1c(Cl)ccc(F)c1Cl	7	> 5.5	> 100	
C[C@H](Oc1ccc2ncc(/C=C/C(=O)O)c(C3COC3)c2c1)c1c(Cl)ccc(F)c1Cl	120		> 100	
C[C@H](Oc1ccc2c(c1)c(C1CC1)c(/C=C/C(=O)O)c[n+]2[O-])c1c(Cl)ccc(F)c1Cl	13	1.7	> 100	
C[C@H](Oc1ccc2ncc(O)c(C3CC3)c2c1)c1c(Cl)ccc(F)c1Cl	42		> 100	
C[C@H](Oc1cc(B(O)O)c2ncc(/C=C/C(=O)O)c(C3CC3)c2c1)c1c(Cl)ccc(F)c1Cl	150		> 100	
C[C@H](Oc1ccc2ncc(/C=C/C(=O)O)c(C(F)F)c2c1)c1c(Cl)ccc(F)c1Cl	8	3.1	25	
C[C@H](Oc1ccc2ncc(/C=C/C(=O)O)c(C3CC3)c2c1)c1c(Cl)ccc(N)c1Cl	14	2.8	63	
Cc1cnn(C)c1[C@H](C)Oc1ccc2ncc(/C=C/C(=O)O)c(C3CC3)c2c1	> 10000	0.9	> 100	
C[C@H](Oc1ccc2ncc(S(=O)(=O)CC(=O)O)c(C3CC3)c2c1)c1c(Cl)ccc(F)c1Cl	78	2.5	> 100	
